In PMC6002837 (Bioorganic & medicinal chemistry letters, 2015):

Target: T1, Rtt109–Vps75 (Saccharomyces cerevisiae, UniProt Q07794)
T1 sequence (Q07794 1-436): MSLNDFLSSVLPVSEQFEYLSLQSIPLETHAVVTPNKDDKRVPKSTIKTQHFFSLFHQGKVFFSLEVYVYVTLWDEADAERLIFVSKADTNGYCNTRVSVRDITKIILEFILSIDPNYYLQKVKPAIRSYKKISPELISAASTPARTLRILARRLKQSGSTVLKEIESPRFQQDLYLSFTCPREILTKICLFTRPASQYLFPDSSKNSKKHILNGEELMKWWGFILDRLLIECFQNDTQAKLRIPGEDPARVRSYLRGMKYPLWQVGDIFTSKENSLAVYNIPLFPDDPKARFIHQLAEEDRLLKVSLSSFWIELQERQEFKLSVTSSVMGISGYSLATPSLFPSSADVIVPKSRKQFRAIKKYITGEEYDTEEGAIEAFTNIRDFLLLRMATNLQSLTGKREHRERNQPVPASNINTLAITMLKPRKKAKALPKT
T1 sequence (P53853 1-264 partner): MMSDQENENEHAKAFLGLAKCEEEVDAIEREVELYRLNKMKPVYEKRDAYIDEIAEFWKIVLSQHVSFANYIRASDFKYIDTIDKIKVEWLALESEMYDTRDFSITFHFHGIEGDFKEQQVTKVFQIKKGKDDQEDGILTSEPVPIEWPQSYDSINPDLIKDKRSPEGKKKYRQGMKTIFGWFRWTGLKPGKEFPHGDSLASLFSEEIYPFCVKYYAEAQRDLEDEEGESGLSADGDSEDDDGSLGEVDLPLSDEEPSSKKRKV
Test: in vitro [3H]-acetyl-CoA HAT assay, Rtt109–Vps75
Type: biochemical, yeast
Conditions: radiolabeled HAT assay; p = 0.61, n = 3 for 1a

difference in IC50 values in presence or absence of DTT and BSA: significant decrease in IC50
SMILES: CCN(CC)c1ccc2c(C)c(-c3ccc(N4C(=O)C=CC4=O)cc3)c(=O)oc2c1 [CPM, N-[4-(7-diethylamino-4-methylcoumarin-3-yl)phenyl]maleimide]
